Data from patent EP4810052A2, “HCRHR2 SELECTIVE POLYPEPTIDES” (Gubra A/S, priority 2023, dated 2026).
Where two headings read alike, the source gives them in different places. Marks after values point to notes of the source that are not given here. Starred links: 1 amine or outer side, 2 acyl side, 3 side chain; linkers in the order of their positions; H or OH if unused. Non-standard residues stand in square brackets, D forms with d. Residues, ends and D or L forms follow the SMILES beside them. Groups on a side chain read outwards from the residue. *: point of attachment. C20 diacid = O=C(O)CCCCCCCCCCCCCCCCCCC(=O)*; γGlu = O=C(O)[C@H](CCC(=O)[*:2])N[*:1]; NMeI = CC[C@H](C)[C@H](NC)C(=O)O; Nle = CCCC[C@H](N)C(=O)O; AEEA = NCCOCCOCC(=O)O; Aib = CC(C)(N)C(=O)O

What was measured:
[1] = pH 7.5
[2] = PK in rats; format: in vivo; set-up: T½ / MRT: unit not given here; settings: Rat
In short: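 Lean male Sprague Dawley rats (n = 3 per group) got a two-peptide combination at 50 nmol/kg IV and SC. Plasma was sampled from 0.17 to 96 h post dose and analysed by LC-MSMS. PK parameters came from non-compartmental analysis.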

[3] = biological target: T1, hCRHR2 (Homo sapiens, UniProt Q13324); assay: HTRF cAMP assay, determination of hCRHR2 potency (peptide libraries 5 conc., purified peptides 11 conc.); format: cell-based; settings: for Selectivity ratio (hCRHR1/ hCRHR2): Table 5
T1 sequence (Q13324 1-411): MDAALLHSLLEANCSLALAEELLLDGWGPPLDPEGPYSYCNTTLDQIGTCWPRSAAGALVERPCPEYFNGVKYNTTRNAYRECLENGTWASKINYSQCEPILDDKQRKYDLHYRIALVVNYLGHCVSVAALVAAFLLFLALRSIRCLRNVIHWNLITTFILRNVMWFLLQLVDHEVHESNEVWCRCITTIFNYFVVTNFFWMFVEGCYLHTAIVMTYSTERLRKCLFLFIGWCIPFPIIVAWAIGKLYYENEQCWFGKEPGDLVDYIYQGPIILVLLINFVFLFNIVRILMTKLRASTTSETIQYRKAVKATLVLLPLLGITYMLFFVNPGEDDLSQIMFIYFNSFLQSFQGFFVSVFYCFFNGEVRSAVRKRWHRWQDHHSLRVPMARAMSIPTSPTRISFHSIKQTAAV
In short: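 Potency was read as cAMP accumulation in a stable CHO-K1 line expressing human CRHR2, used in suspension right after thawing. Detection relied on energy transfer from antibody-bound cryptate to d2-cAMP.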

[4] = Effect on acute food intake in mice; format: in vivo; settings: single subcutaneous dose
In short: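 Male NMRI mice (n=7-8 per group) were fasted from six hours before the dark phase. They received a single subcutaneous peptide dose one hour before dark onset. Hourly food intake was monitored for 72 h and expressed as percent reduction versus vehicle, analysed by one-way ANOVA with Dunnett's test.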

[5] = biological target: T2, hCRHR1 (Homo sapiens, UniProt P34998); assay: HTRF cAMP assay, determination of hCRHR1 potency (peptide libraries 5 conc., purified peptides 11 conc.); format: cell-based
T2 sequence (P34998 24-415): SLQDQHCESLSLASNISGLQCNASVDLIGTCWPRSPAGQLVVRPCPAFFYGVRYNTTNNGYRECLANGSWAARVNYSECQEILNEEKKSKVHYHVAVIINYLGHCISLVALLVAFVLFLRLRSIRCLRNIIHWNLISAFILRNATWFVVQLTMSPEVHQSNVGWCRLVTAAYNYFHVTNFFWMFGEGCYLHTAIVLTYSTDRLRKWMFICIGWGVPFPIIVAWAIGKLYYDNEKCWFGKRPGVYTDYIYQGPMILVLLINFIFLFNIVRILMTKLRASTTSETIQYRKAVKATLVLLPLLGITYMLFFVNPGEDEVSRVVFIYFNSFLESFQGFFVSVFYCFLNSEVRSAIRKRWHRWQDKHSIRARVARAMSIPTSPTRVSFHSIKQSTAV
In short: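 CHO-K1 cells stably expressing human CRHR1, thawed from frozen stocks just before use, were stimulated in suspension with agonist peptides. cAMP was measured by HTRF competitive immunoassay (cryptate anti-cAMP antibody vs d2-cAMP).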

[6] = Table 5, purified peptides, read-out: hCRHR2 EC50
[7] = Table 5, purified peptides, read-out: hCRHR1 EC50

CCCC[C@H](NC(=O)[C@@H](NC(=O)[C@H](CCC(=O)O)NC(=O)[C@H](C)NC(=O)[C@H](CC(N)=O)NC(=O)[C@H](CCC(=O)O)NC(=O)[C@H](CCCCNC(=O)COCCOCCNC(=O)COCCOCCNC(=O)CC[C@H](NC(=O)CC[C@H](NC(=O)CCCCCCCCCCCCCCCCCCC(=O)O)C(=O)O)C(=O)O)NC(=O)[C@H](C)NC(=O)[C@H](CCC(N)=O)NC(=O)[C@H](CCC(=O)O)NC(=O)[C@H](CCCNC(=N)N)NC(=O)[C@H](C)NC(=O)[C@H](C)NC(=O)[C@H](CCCNC(=N)N)NC(=O)[C@H](C)NC(=O)[C@H](CCCNC(=N)N)NC(=O)[C@H](C)NC(=O)[C@H](CCC(N)=O)NC(=O)[C@H](CO)NC(=O)[C@H](CC(C)C)NC(=O)[C@H](CC(C)C)NC(=O)[C@@H](NC(=O)[C@H](CCC(N)=O)NC(=O)[C@H](CC(C)C)NC(=O)[C@H](CC(C)C)NC(=O)CNC(=O)[C@@H](NC(=O)[C@@H]1CCCN1C(=O)[C@@H](NC(=O)[C@H](CC(=O)O)NC(=O)[C@H](CC(C)C)NC(=O)[C@H](CO)NC(=O)[C@H](CC(C)C)NC(=O)[C@@H](NC(=O)[C@@H](NC)[C@@H](C)CC)C(C)C)C(C)C)[C@@H](C)CC)[C@@H](C)CC)[C@@H](C)CC)C(=O)N[C@@H](C)C(=O)N[C@@H](CCC(=O)O)C(=O)N[C@H](C(N)=O)C(C)C [compound 101] (H-[NMeI]VLSLDVPIGLLQILLSQARARAAREQAK([AEEA-AEEA-γGlu-γGlu-C20 diacid])ENAEI[Nle]AEV-NH2)
Solubility pH 7.5, target conc. =10 mg/mL (measured mg/mL) [1]: 11 mg/mL
MRT [2]: 6.8
T½ [2]: 6.5
Selectivity ratio (hCRHR1/ hCRHR2) [3]: 5435
EC50 [3, 6]: 0.92 nM
% FI compared to vehicle, 24 h post-dosing ([4]; 30 nmol/kg): 30.85*** %
% FI compared to vehicle, 24 h post-dosing ([4]; 100 nmol/kg): 21.44*** %
% FI compared to vehicle, 24 h post-dosing ([4]; 300 nmol/kg): 8.09*** %
EC50 [5, 7]: > 5000 nM

CCCC[C@H](NC(=O)[C@@H](NC(=O)[C@H](CCC(=O)O)NC(=O)[C@H](C)NC(=O)[C@H](CC(N)=O)NC(=O)C(C)(C)NC(=O)[C@H](CCCCNC(=O)COCCOCCNC(=O)COCCOCCNC(=O)CC[C@H](NC(=O)CC[C@H](NC(=O)CCCCCCCCCCCCCCCCCCC(=O)O)C(=O)O)C(=O)O)NC(=O)[C@H](C)NC(=O)[C@H](CCC(N)=O)NC(=O)[C@H](CCC(=O)O)NC(=O)[C@H](CCCNC(=N)N)NC(=O)[C@H](C)NC(=O)[C@H](C)NC(=O)[C@H](CCCNC(=N)N)NC(=O)[C@H](C)NC(=O)[C@H](CCCNC(=N)N)NC(=O)[C@H](C)NC(=O)[C@H](CCC(N)=O)NC(=O)[C@H](CO)NC(=O)[C@H](CC(C)C)NC(=O)[C@H](CC(C)C)NC(=O)[C@@H](NC(=O)[C@H](CCC(N)=O)NC(=O)[C@H](CC(C)C)NC(=O)[C@H](CC(C)C)NC(=O)CNC(=O)[C@@H](NC(=O)[C@@H]1CCCN1C(=O)[C@@H](NC(=O)[C@H](CC(=O)O)NC(=O)[C@H](CC(C)C)NC(=O)[C@H](CO)NC(=O)[C@H](CC(C)C)NC(=O)[C@@H](NC(=O)[C@@H](NC)[C@@H](C)CC)C(C)C)C(C)C)[C@@H](C)CC)[C@@H](C)CC)[C@@H](C)CC)C(=O)N[C@@H](C)C(=O)N[C@@H](CCC(=O)O)C(=O)N[C@H](C(N)=O)C(C)C [compound 132] (H-[NMeI]VLSLDVPIGLLQILLSQARARAAREQAK([AEEA-AEEA-γGlu-γGlu-C20 diacid])[Aib]NAEI[Nle]AEV-NH2)
Solubility pH 7.5, target conc. =10 mg/mL (measured mg/mL) [1]: 11 mg/mL
MRT [2]: 6.2
T½ [2]: 4.8
EC50 ([3]; Table 4, library peptides having X^38 = Nle, read-out: hCRHR2 pEC50 (converted)): 0.02 nM
Selectivity ratio (hCRHR1/ hCRHR2) [3]: >6494
EC50 [3, 6]: 0.77 nM
% FI compared to vehicle, 24 h post-dosing ([4]; 30 nmol/kg): 46.64*** %
% FI compared to vehicle, 24 h post-dosing ([4]; 100 nmol/kg): 18.5*** %
% FI compared to vehicle, 24 h post-dosing ([4]; 300 nmol/kg): 20.04*** %
EC50 ([5]; Table 4, library peptides having X^38 = Nle, read-out: hCRHR1 pEC50 (converted)): 794 nM
EC50 [5, 7]: > 5000 nM
